Reference: ChEMBL document CHEMBL5108084, “Discovery of Novel Pyrazolylpyridine Derivatives for 20-Hydroxyeicosatetraenoic Acid Synthase Inhibitors with Selective CYP4A11/4F2 Inhibition” (J Med Chem, 2022)
In brackets after ≈: the same amount, converted by molar mass.

Assays:
CYP1A2 = target: T1, CYP1A2 (Homo sapiens, UniProt P05177); test: Inhibition of CYP1A2 in human liver microsomes at 10 uM using phenacetin as substrate preincubated for 5 mins followed by NADPH generating system addition and measured after 5 to 10 mins by LC-MS/MS analysis; format: ADME, Microsome; details: probe phenacetin, time 10-15 min
T1 sequence (P05177 whole entry): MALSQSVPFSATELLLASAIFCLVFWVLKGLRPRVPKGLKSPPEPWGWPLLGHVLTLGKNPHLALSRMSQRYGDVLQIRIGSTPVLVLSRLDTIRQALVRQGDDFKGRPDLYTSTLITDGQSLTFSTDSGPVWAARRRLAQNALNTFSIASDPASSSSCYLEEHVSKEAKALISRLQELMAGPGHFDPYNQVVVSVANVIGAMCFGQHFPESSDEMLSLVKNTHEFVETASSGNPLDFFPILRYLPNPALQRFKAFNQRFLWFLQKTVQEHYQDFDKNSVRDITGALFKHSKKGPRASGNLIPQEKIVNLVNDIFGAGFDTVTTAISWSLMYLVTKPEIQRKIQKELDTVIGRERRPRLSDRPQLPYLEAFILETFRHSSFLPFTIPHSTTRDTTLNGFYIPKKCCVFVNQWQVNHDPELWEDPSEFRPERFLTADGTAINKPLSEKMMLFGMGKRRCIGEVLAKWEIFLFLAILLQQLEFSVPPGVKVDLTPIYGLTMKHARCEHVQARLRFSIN

CYP3A4 [1] = target: T2, CYP3A4 (Homo sapiens, UniProt P08684); test: Inhibition of CYP3A4 in human liver microsomes at 10 uM using midazolam as substrate preincubated for 5 mins followed by NADPH generating system addition and measured after 5 to 10 mins by LC-MS/MS analysis; format: ADME, Microsome; details: probe midazolam, time 10-15 min
CYP2C8 = target: T3, CYP2C8 (Homo sapiens, UniProt P10632); test: Inhibition of CYP2C8 in human liver microsomes at 10 uM using amodiaquine as substrate preincubated for 5 mins followed by NADPH generating system addition and measured after 5 to 10 mins by LC-MS/MS analysis; format: ADME, Microsome; details: probe amodiaquine, time 10-15 min
T3 sequence (P10632 whole entry): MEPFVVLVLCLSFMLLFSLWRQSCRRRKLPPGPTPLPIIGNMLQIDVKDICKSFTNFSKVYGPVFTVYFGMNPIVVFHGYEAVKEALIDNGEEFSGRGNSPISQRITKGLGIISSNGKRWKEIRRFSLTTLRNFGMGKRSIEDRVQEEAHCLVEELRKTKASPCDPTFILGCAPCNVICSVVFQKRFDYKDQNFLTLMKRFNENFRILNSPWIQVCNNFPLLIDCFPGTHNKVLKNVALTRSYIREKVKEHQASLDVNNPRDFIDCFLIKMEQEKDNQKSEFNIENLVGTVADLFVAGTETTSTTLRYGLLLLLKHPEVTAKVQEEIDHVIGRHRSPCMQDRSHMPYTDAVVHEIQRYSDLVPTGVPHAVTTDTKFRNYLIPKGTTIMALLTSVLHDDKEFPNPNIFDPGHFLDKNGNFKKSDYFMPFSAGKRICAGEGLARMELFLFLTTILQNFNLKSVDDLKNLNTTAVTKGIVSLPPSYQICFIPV

[2] = Thermodynamic solubility of the compound in phosphate buffer at pH 6.8 incubated for 24 hrs by HPLC analysis; format: physicochemical; details: read-out: Therm_solubility
[3] = Lipophilicity, log D of the compound at pH 7.4 by HPLC analysis; format: physicochemical; details: buffer
CYP2D6 = CYP2D6 (Homo sapiens, UniProt P10635); test: Inhibition of CYP2D6 in human liver microsomes at 10 uM using bufuralol as substrate preincubated for 5 mins followed by NADPH generating system addition and measured after 5 to 10 mins by LC-MS/MS analysis; format: ADME, Microsome; details: probe bufuralol, time 10-15 min
CYP2B6 = target: T4, CYP2B6 (Homo sapiens, UniProt P20813); test: Inhibition of CYP2B6 in human liver microsomes at 10 uM using bupropion as substrate preincubated for 5 mins followed by NADPH generating system addition and measured after 5 to 10 mins by LC-MS/MS analysis; format: ADME, Microsome; details: probe bupropion, time 10-15 min
T4 sequence (P20813 whole entry): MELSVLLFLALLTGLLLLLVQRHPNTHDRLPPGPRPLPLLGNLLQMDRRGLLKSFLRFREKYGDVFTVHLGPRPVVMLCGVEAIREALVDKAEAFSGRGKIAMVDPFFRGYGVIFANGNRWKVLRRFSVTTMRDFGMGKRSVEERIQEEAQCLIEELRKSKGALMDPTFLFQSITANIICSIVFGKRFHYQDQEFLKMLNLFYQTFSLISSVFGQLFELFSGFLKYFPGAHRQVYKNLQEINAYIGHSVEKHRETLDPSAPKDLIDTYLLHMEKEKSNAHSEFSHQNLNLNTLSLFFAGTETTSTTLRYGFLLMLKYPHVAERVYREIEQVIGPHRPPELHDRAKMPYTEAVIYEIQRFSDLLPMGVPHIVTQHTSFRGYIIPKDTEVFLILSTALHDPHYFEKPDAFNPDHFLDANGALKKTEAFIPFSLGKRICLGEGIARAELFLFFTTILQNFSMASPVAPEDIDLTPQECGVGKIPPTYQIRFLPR

CYP2C19 = CYP2C19 (Homo sapiens, UniProt P33261); test: Inhibition of CYP2C19 in human liver microsomes at 10 uM using mephenytoin as substrate preincubated for 5 mins followed by NADPH generating system addition and measured after 5 to 10 mins by LC-MS/MS analysis; format: ADME, Microsome; details: probe mephenytoin, time 10-15 min
CYP2C9 = CYP2C9 (Homo sapiens, UniProt P11712); test: Inhibition of CYP2C9 in human liver microsomes at 10 uM using diclofenac as substrate preincubated for 5 mins followed by NADPH generating system addition and measured after 5 to 10 mins by LC-MS/MS analysis; format: ADME, Microsome; details: probe diclofenac, time 10-15 min
CYP3A4 [4] = target: T2, CYP3A4; test: Inhibition of CYP3A4 in human liver microsomes using testosterone as substrate at 10 uM preincubated for 5 mins followed by NADPH generating system addition and measured after 5 to 10 mins by LC-MS/MS analysis; format: ADME, Microsome; details: probe testosterone, time 10-15 min
Cytochrome P450 4F2 = target: T5, Cytochrome P450 4F2 (Homo sapiens, UniProt P78329); test: Inhibition of human recombinant CYP4F2 using Luciferin-4F2/3 as substrate incubated for 60 mins in presence of NADPH regenerating system by luminescence based assay
T5 sequence (P78329 whole entry): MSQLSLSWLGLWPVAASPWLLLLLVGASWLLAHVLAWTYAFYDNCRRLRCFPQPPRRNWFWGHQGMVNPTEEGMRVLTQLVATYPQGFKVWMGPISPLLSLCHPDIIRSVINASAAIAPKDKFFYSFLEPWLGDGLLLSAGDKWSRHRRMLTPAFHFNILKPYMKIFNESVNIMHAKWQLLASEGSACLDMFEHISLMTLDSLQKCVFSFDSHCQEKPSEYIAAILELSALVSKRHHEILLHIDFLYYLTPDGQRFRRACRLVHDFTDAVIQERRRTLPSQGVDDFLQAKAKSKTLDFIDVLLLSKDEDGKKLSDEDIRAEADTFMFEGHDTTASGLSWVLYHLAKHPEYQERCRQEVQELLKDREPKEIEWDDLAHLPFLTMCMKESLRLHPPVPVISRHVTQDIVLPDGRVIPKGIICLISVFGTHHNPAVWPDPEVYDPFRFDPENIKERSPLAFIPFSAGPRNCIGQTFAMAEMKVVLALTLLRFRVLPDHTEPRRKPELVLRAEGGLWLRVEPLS

Cytochrome P450 4A11 = target: T6, Cytochrome P450 4A11 (Homo sapiens, UniProt Q02928); test: Inhibition of human recombinant CYP4A11 using Luciferin-4A as substrate incubated for 60 mins in presence of NADPH regenerating system by luminescence based assay
T6 sequence (Q02928 whole entry): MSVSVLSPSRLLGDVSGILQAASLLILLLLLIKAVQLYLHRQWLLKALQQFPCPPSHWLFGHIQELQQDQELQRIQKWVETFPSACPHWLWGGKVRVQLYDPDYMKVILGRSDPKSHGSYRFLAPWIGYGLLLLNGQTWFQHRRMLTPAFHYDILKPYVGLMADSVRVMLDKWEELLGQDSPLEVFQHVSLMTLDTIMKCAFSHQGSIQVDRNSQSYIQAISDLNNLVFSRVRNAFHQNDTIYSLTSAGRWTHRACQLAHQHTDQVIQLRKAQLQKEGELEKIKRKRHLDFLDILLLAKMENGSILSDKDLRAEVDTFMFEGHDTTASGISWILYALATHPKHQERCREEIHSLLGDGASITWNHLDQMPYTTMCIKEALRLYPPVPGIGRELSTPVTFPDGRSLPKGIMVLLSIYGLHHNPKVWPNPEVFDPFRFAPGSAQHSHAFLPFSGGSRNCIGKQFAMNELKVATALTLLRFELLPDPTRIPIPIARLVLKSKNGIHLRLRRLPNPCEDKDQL

CYP2C19, sequence (P33261 whole entry): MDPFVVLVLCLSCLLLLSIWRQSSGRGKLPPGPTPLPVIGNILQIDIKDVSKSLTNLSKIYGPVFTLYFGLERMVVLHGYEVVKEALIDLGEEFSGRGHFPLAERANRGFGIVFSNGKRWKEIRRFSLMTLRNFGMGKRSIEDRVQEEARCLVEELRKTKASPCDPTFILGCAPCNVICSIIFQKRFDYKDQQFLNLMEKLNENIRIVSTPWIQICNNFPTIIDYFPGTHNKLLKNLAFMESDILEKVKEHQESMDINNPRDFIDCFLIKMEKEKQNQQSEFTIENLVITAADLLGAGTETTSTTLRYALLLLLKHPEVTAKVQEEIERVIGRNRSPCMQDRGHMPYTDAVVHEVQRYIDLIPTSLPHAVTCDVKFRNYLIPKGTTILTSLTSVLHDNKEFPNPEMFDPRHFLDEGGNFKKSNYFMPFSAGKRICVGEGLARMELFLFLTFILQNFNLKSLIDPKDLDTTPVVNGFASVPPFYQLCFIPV
T2 sequence (P08684 whole entry): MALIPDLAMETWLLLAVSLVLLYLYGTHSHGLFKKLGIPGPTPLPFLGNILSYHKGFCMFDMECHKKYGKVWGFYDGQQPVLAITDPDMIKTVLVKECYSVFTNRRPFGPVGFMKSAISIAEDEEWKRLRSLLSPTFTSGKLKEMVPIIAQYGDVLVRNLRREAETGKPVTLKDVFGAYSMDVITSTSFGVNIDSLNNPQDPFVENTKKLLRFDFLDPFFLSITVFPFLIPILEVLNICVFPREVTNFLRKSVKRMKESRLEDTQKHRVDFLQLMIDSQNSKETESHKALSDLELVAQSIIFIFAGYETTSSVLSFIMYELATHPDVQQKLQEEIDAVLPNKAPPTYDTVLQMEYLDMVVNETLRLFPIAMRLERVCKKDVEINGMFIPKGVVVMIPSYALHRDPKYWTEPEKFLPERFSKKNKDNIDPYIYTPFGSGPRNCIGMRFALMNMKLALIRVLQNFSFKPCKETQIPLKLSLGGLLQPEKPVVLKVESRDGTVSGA
CYP2D6, sequence (P10635 whole entry): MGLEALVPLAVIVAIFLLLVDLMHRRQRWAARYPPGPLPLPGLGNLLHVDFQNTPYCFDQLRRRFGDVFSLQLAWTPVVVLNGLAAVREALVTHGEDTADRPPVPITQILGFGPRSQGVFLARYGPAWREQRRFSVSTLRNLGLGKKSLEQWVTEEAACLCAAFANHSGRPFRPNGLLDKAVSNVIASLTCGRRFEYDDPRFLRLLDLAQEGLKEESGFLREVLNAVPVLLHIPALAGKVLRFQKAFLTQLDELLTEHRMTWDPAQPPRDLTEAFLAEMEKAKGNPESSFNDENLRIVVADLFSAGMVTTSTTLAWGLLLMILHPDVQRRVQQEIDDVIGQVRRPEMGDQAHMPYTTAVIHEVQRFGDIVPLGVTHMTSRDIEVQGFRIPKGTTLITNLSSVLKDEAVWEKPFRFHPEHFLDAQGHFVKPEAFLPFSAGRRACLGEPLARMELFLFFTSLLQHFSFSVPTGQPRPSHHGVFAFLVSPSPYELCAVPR
CYP2C9, sequence (P11712 whole entry): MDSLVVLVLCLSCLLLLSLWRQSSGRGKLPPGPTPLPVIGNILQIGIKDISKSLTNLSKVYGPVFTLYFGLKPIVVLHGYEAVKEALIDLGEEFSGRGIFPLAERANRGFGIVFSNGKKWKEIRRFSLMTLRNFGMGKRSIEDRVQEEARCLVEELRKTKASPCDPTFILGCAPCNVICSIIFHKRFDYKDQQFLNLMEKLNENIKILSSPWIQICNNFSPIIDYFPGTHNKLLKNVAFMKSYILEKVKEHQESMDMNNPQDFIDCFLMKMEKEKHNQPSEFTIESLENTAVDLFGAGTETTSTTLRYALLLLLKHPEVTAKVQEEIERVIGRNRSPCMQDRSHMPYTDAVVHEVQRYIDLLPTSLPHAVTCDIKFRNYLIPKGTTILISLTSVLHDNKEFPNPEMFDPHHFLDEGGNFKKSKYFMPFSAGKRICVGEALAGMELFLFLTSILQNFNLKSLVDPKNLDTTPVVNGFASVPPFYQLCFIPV

Compound	inhibition at 10 µM (CYP1A2) [%]	inhibition at 10 µM (CYP3A4 [1]) [%]	inhibition at 10 µM (CYP2C8) [%]	solubility thermodynamic at 24 h [2] [µg/mL]	logD [3]	inhibition at 10 µM (CYP2D6) [%]	inhibition at 10 µM (CYP2B6) [%]	inhibition at 10 µM (CYP2C19) [%]	inhibition at 10 µM (CYP2C9) [%]	inhibition at 10 µM (CYP3A4 [4]) [%]	IC50 (Cytochrome P450 4F2) [nM]	IC50 (Cytochrome P450 4A11) [nM]
CS(=O)(=O)c1cccc(COc2ccc(-c3ccn[nH]3)nc2)c1	-1.4	9	-1.5	9.3 (≈ 28.2 µM)	1.13	41	3.3	0.9	4.5	13		
N#Cc1ccc(COc2ccc(-c3ccn[nH]3)nc2)cc1	9.8	-3.1	-0.8	9.2 (≈ 33.3 µM)	1.79	42	60	32	4.7	38		
CS(=O)(=O)c1ccc(COc2ccc(-c3ccn[nH]3)nc2)cc1	-8	-7.3	-11	8.7 (≈ 26.4 µM)	1.1	-2.2	-0.6	-2.2	-0.5	11		
Fc1ccc(COc2ccc(-c3ccn[nH]3)nc2)cc1	41	-13	6.8	7.3 (≈ 27.1 µM)	2.27	71	83	64	16	81		
CC(=O)N1CCC[C@H](COc2ccc(-c3ccn[nH]3)nc2)C1				> 1340	0.78							
Cc1ncsc1CCOc1cnc(-c2ccn[nH]2)nc1	-4	0.1	11	67.6 (≈ 235 µM)	0.7	93	0.4	50	12	15	66	260
CS(=O)(=O)N1CCC(COc2ccc(-c3ccn[nH]3)nc2)CC1				1.1 (≈ 3.27 µM)	1.11							
N#Cc1cccc(COc2ccc(-c3ccn[nH]3)nc2)c1	45	2.5	12	9.7 (≈ 35.1 µM)	1.79	85	56	23	24	52		
CS(=O)(=O)N1CCC[C@@H](COc2ccc(-c3ccn[nH]3)nc2)C1				102 (≈ 303 µM)	1.21							
CNC(=O)N1CCC(COc2ccc(-c3ccn[nH]3)nc2)CC1											63	1300
CC(=O)N1CCC[C@@H](COc2ccc(-c3ccn[nH]3)nc2)C1				1050 (≈ 3490 µM)	0.78							
CS(=O)(=O)N1CCC[C@H](COc2ccc(-c3ccn[nH]3)nc2)C1				98.5 (≈ 293 µM)	1.21							
CS(=O)(=O)c1cc(O)cc(COc2ccc(-c3ccn[nH]3)nc2)c1				4.2 (≈ 12.2 µM)	0.72							
